Experiments:
[1] = biological target: T1, Protein mono-ADP-ribosyltransferase TIPARP (Homo sapiens, UniProt Q7Z3E1); assay: Inhibition of PARP7 (unknown origin) by HTRF assay
T1 sequence (Q7Z3E1 whole entry): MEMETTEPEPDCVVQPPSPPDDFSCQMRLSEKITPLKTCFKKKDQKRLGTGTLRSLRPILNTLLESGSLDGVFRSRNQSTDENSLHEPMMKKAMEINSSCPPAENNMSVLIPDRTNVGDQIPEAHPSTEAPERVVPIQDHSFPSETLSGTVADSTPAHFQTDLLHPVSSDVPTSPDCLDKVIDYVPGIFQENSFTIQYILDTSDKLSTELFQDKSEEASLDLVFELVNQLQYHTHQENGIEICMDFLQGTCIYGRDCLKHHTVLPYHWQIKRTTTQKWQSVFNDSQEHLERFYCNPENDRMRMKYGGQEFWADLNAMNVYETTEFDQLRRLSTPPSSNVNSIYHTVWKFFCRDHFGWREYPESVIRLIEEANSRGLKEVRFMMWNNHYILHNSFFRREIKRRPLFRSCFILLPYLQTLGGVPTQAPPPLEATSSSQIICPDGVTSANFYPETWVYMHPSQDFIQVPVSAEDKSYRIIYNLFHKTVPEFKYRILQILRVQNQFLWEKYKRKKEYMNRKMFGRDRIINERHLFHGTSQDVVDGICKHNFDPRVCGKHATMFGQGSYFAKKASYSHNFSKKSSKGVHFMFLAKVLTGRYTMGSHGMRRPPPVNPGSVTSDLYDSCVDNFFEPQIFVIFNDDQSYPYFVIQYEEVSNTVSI

[2] = Oral bioavailability in mouse at 100 mg/kg administered as single dose; assay type: ADME, organism-based; details: in vivo

Structure (SMILES) | IC50 [1] | bioavailability [2]
C[C@@H](COCCC(=O)N1CCN2c3ncc(Cl)cc3OCC[C@@H]2C1)Oc1cn[nH]c(=O)c1C(F)(F)F | 1.01 nM | 106%
C[C@@H](COCCC(=O)N1CCN2c3ncc(C(F)(F)F)cc3OC[C@@H]2C1)Oc1cn[nH]c(=O)c1C(F)(F)F | 1.24 nM | 121%

— ChEMBL document CHEMBL5126675, “Recent Discovery of PARP7 Inhibitors as Anticancer Agents” (ACS Med Chem Lett, 2022)
